Reference: US20180064153A1, “Methods of Protecting Against Brain Injury” (priority 2016, published 2018)
Like-named read-outs stand apart in the source and are kept apart here.

Columns and labels:
[1] = tested on: rats exposed to a low-pressure blast wave; details: 30 days supplementation
neuropeptide Y (NPY) = details: day 16 post-blast
tau protein = details: day 16 post-blast; for Tau protein expression, CTL compared with BA: p<0.001
[2] = individuals taking β-alanine as a free amino acid; cited from earlier work
carnosine = details: for Brain Carnosine Concentration: mean ± SD
[3] = tested on: brain-derived neurotrophic factor (BDNF); details: day 16 post-blast
[4] = tested on: rats exposed to a low-pressure blast wave; details: 1 h following blast
Description: Neurological assessment using the neurological severity score (NSS) was performed one hour following the blast and daily thereafter. […] The NSS was performed 1-h following the initial blast wave exposure. NSS assesses somatomotor and somatosensory function by evaluating the animals' activities in motor, sensory, reflexes, beam walking, and beam balancing tasks. Specifically, the following were assessed: ability to exit from a circle (3-point scale), gait on a wide surface (3-point scale), gait on a narrow surface (4-point scale), effort to remain on a narrow surface (2-point scale), reflexes (5-point scale), seeking behavior (2-point scale), beam walking (3-point scale), and beam balance (3- point scale). An observer, who was blind to the different treatment groups, tested the animals.

histidine = details: for Brain Histidine Concentration: mean ± SD
[5] = tested on: glial fibrillary acidic protein (GFAP); details: day 16 post-blast

NCCC(=O)O [BA, beta-alanine]
prevalence of animals demonstrating the comorbid pattern of mTBI+PTSD ([1]; 2/49): 4%
prevalence of PTSD ([1]; 5/49): 10.2%
prevalence of animals demonstrating mTBI ([1]; 13/49): 26.5%
NPY expression, CTL compared with BA (neuropeptide Y (NPY); CA1 subregion, p=0.011): significantly higher
NPY expression, BA compared with PL (neuropeptide Y (NPY); CA1 subregion, p=0.196): No significant differences
NPY expression, CTL compared with BA (neuropeptide Y (NPY); CA3 subregion, p=0.032): significantly greater
NPY expression, BA compared with PL (neuropeptide Y (NPY); CA3 subregion, p=0.480): no differences
NPY expression, CTL compared with BA (neuropeptide Y (NPY); DG subregion, p=0.011): significantly greater
NPY expression, BA compared with PL (neuropeptide Y (NPY); DG subregion, p=0.074): trended (p=0.074) towards a higher response
Tau protein expression, CTL compared with BA (tau protein; CA1 subregion): significantly lower
Tau protein expression, BA compared with PL (tau protein; CA1 subregion, p=0.700): No significant differences
Tau protein expression, CTL compared with BA (tau protein; CA3 subregion): significantly lower
Tau protein expression, BA compared with PL (tau protein; CA3 subregion, p=1.000): no differences
Tau protein expression, CTL compared with BA (tau protein; DG subregion): significantly lower
Tau protein expression, BA compared with PL (tau protein; DG subregion, p=0.557): no differences observed
duration of flushing/tingling (paraesthesia) of the skin [2]: less than 60 minutes
Brain Carnosine Concentration (carnosine; Amygdala): 23.2 ± 18.4 mM
Brain Carnosine Concentration (carnosine; Cortex): 364 ± 178 mM
Brain Carnosine Concentration (carnosine; Hippocampus): 22.4 ± 11.3 mM
Brain Carnosine Concentration (carnosine; Hypothalamus): 22.7 ± 26.2 mM
Brain Carnosine Concentration (carnosine; Thalamus): 50.9 ± 33.9 mM
carnosine content, BA compared to PL (carnosine; amygdala, p=0.061): Trends towards a difference
carnosine content higher than in animals that consumed the vehicle (carnosine; average across the five brain regions): 79%
carnosine content, BA compared to PL (carnosine; cerebral cortex, p=0.048): significantly higher
carnosine content, BA compared to PL (carnosine; hippocampus, p=0.058): Trends towards a difference
BDNF expression, BA compared with PL ([3]; CA1 subregion, p=0.009): significantly higher
BDNF expression, CTL compared with BA ([3]; CA1 subregion, p=0.025): significantly higher
BDNF expression, CTL compared with BA ([3]; CA3 subregion, p=0.005): significantly greater
BDNF expression, BA compared with PL ([3]; CA3 subregion, p=0.110): No difference
BDNF expression, CTL compared with BA ([3]; DG subregion, p=0.005): significantly greater
BDNF expression, BA compared with PL ([3]; DG subregion, p=0.136): no differences
NSS: reflex responses, motor coordination, motor strength, sensory function, BA vs PL [4]: No significant differences
Brain Histidine Concentration (histidine; Amygdala): 2619 ± 1467 mM
Brain Histidine Concentration (histidine; Cortex): 5669 ± 4471 mM
Brain Histidine Concentration (histidine; Hippocampus): 5632 ± 4995 mM
Brain Histidine Concentration (histidine; Hypothalamus): 1862 ± 1794 mM
Brain Histidine Concentration (histidine; Thalamus): 26025 ± 21754 mM
histidine content higher than PL (histidine; across the five regions of the brain): 86%
histidine content, BA compared to PL (histidine; cerebral cortex, p=0.070): Trends towards a higher histidine content
histidine content, BA compared to PL (histidine; hippocampus, p=0.053): Trends towards a higher histidine content
histidine content, BA compared to PL (histidine; thalamus, p=0.108): Trends towards a higher histidine content
GFAP expression, PL compared with BA ([5]; CA1 subregion, p=0.001): significantly greater
GFAP expression, CTL compared with BA ([5]; CA1 subregion, p=0.126): No differences
GFAP expression, PL compared with BA ([5]; CA3 subregion, p=0.021): significantly greater
GFAP expression, BA compared with CTL ([5]; CA3 subregion, p=0.876): no differences
GFAP expression, comparison between BA, PL and CTL ([5]; DG subregion, ANOVA p=0.387): no difference
